Laboratory results taken from patent US10358454B2, “Marinopyrrole derivatives and methods of making and using same” (H. LEE MOFFITT CANCER CENTER AND RESEARCH INSTITUTE, INC., priority 2014, dated 2019).
Where two headings read alike, the source gives them in different places. Each block holds one compound with its values, some of them ahead of it.

How the values were obtained:
Bcl-xL/Bim = Bcl-xL/Bim (Homo sapiens, UniProt Q07817); assay: Bcl-xL/Bim ELISA (GST-Bcl-xL binding to biotinylated Bim BH3 peptide)
Chain of Bcl-xL/Bim (Q07817 whole entry): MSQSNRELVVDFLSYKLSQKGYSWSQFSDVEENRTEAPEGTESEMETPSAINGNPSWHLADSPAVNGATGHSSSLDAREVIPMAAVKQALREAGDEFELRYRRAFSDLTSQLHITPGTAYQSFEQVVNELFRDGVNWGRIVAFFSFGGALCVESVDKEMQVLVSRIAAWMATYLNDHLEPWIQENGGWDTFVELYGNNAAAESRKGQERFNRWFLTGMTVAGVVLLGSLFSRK
Method: (§1) ELISAs were performed using a modified version of a previously described procedure (Doi K et al. J. Biol. Chem. 2012, 287, 10224-10235). Briefly, 40 nM of biotinylated Bim BH3 peptide (Biomatik) in SuperBlock blocking buffer (Pierce) was incubated in high-binding capacity streptavidin-coated plates (Pierce) for 2 h. Compounds were diluted in 120 μl of PBS containing 10 nM of GST-Mcl-1 or GST-Bcl-xL in 1.5 mL tubes for 15 min. Wells were washed with wash buffer (PBS containing 0.05% Tween-20) and then 100 μL of the compound/GST-protein mixture was transferred to the wells. The plates were incubated for 2 h, and then the wells were washed with wash buffer. HRP-conjugated anti-GST antibody (Bethyl Laboratories) was diluted 1:2000 in SuperBlock and 100 μL was transferred to each well. The plate was incubated for 1 h, and then the wells were washed with wash buffer followed by PBS. 100 μL of SureBlue TMB Microwell Peroxidase Substrate (VWR) was added to each well and plates were developed for 5-10 min. 100 μL of 1 N HCl was added to each well to stop the reaction and absorbance was read at 450 nm using a μQuant plate reader (Bio-Tek).
(§2) ELISAs were performed using a similar procedure as previously described (Doi K, et al. J. Biol. Chem. 2012, 287, 10224-10235). Briefly, 40 nM of biotinylated Bim BH3 peptide (Biomatik) in SuperBlock blocking buffer (Pierce) was incubated in high-binding capacity streptavidin-coated plates (Pierce) for 2 h. Compounds were diluted in 120 μl of PBS containing 10 nM of GST-Mcl-1 or GST-Bcl-xL in 1.5 mL tubes for 15 min. Wells were washed with wash buffer (PBS containing 0.05% Tween-20) and then 100 μL of the compound/GST-protein mixture was transferred to the wells. The plates were incubated for 2 h, and then wells were washed with wash buffer. HRP-conjugated anti-GST antibody (Bethyl Laboratories) was diluted 1:2000 in SuperBlock and 100 μL was transferred to each well. The plate was incubated for 1 h, and then wells were washed with wash buffer followed by PBS. 100 μL of SureBlue TMB Microwell Peroxidase Substrate (VWR) was added to each well and plates were developed for 5-10 min. 100 μL of 1 N HCl was added to each well to stop the reaction and absorbance was read at 450 nm using μQuant plate reader (Bio-Tek).

Mcl-1/Bim = Mcl-1/Bim (Homo sapiens, UniProt Q07820); assay: Mcl-1/Bim ELISA (GST-Mcl-1 binding to biotinylated Bim BH3 peptide); settings: for IC50: n ≥ 3; for selectivity profile Mcl-1 vs Bcl-xL in words: from Mcl-1/Bim and Bcl-xL/Bim ELISA; for fold loss of potency against Mcl-1/Bim: 1-15 and 1-13 vs 1-10, 1-14 vs 1-11, 1-16 vs 1-15, 1-12 vs 1-9, 1-22, 1-21, 1-20 vs 1-23, 1-37 and N-Me methoxy analogue vs (±)-1
Chain of Mcl-1/Bim (Q07820 whole entry): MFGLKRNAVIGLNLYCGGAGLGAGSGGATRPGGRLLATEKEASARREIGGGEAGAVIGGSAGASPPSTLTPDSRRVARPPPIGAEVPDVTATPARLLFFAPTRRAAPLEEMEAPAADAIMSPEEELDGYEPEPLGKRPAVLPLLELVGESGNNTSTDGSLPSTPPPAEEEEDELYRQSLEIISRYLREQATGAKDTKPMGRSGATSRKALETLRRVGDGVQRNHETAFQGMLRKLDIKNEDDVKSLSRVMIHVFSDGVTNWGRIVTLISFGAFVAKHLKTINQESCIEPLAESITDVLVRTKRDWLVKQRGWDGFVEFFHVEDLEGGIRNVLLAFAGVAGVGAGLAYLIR
Method: as §1, §2

[1] = Table 3-A structure I, Mcl-1 at 10 nM, read-out: Mcl-1-Bim IC50 (average ± SEM)
[2] = Table 3-A structure I, Bcl-xL at 10 nM, n ≥ 3, read-out: Bcl-xL-Bim IC50 (average ± SEM)
[3] = Table 2-B, n ≥ 3 unless specified, read-out: Bcl-xL/Bim IC50 (average ± SEM)
[4] = Table 2-B, read-out: Mcl-1/Bim IC50 (average ± SEM)

Structure (SMILES): O=C(c1ccc(SCc2ccccc2)cc1O)c1[nH]c(Cl)c(Cl)c1-n1c(C(=O)c2ccc(SCc3ccccc3)cc2O)cc(Cl)c1Cl [Compound 1-10, (4,4′,5,5′-Tetrachloro-1′H-1,3′-bipyrrole-2,2′-diyl)bis(((2-hydroxy-4-benzylthio)phenyl)methanone)]
IC50 (Bcl-xL/Bim; read-out: IC50 to inhibit Bcl-xL/Bim binding): 600 nM | IC50 (Mcl-1/Bim; [1]): 700 ± 200 nM | selectivity profile Mcl-1 vs Bcl-xL in words (Mcl-1/Bim): most potent dual Mcl-1 and Bcl-xL antagonists

Structure (SMILES): Cc1cc(O)c(C(=O)c2[nH]c(Cl)c(Cl)c2-n2c(C(=O)c3cc(Cl)c(C)cc3O)cc(Cl)c2Cl)cc1Cl [Compound 1-2, (4,4′,5,5′-Tetrachloro-1′H-1,3′-bipyrrole-2,2′-diyl)bis((5-chloro-2-hydroxy-4-methylphenyl)methanone)]
IC50 (Bcl-xL/Bim; [3]): 2500 ± 400 nM | IC50 (Bcl-xL/Bim; [2]): 2500 ± 400 nM | IC50 (Mcl-1/Bim; [4]): 2600 ± 600 nM | IC50 (Mcl-1/Bim; [1]): 2600 ± 600 nM | selectivity profile Mcl-1 vs Bcl-xL in words (Mcl-1/Bim): dual Mcl-1 and Bcl-XL antagonists

Structure (SMILES): COc1ccc(CSc2ccc(C(=O)c3[nH]c(Cl)c(Cl)c3-n3c(C(=O)c4ccc(SCc5ccc(OC)cc5)cc4O)cc(Cl)c3Cl)c(O)c2)cc1 [Compound 1-11]
IC50 (Bcl-xL/Bim; [2]): 600 ± 100 nM | IC50 (Mcl-1/Bim; [4]): 700 ± 100 nM

Structure (SMILES): COC(=O)c1ccc(C(=O)c2cc(Cl)c3n2-c2c([nH]c(Cl)c2Cl)C(=O)c2ccc(C(=O)OC)cc2O3)c(O)c1 [IV-3, Methyl-2,3,7-trichloro-5-(2-hydroxy-4-(methoxycarbonyl)benzoyl)-13-oxo-1,13-dihydrobenzo[g]-dipyrrolo[2,1-b:3′,2′-d][1,3]oxazocine-10-carboxylate]
activity against Bcl-xL/Bim in words (Bcl-xL/Bim): slight increase in potency | IC50 (Bcl-xL/Bim; Table 1, Bcl-xL at 10 nM, n ≥ 3, read-out: Bcl-xL-Bim IC50 (average ± SEM)): 3400 ± 900 nM | IC50 (Bcl-xL/Bim; [3]): 10100 ± 2200 nM | IC50 (Bcl-xL/Bim; Table 3-C structure IV, n ≥ 3 (IV-1: n = 2), read-out: Bcl-xL-Bim IC50 (average ± SEM)): 10100 ± 2200 nM | fold more potent than (±)-1 (1) against Bcl-xL/Bim (Bcl-xL/Bim; relative to (±)-1): seven-fold | IC50 (Mcl-1/Bim; Table 1, Mcl-1 at 10 nM, read-out: Mcl-1-Bim IC50 (average ± SEM)): 4300 ± 1500 nM | IC50 (Mcl-1/Bim; [4]): 4100 ± 1400 nM | IC50 (Mcl-1/Bim; Table 3-C structure IV, read-out: Mcl-1-Bim IC50 (average ± SEM)): 4100 ± 1400 nM | fold more potent than (±)-1 (1) against Mcl-1/Bim (Mcl-1/Bim; relative to (±)-1): two-fold

Structure (SMILES): COc1ccc(CS(=O)(=O)c2ccc(C(=O)c3[nH]c(Cl)c(Cl)c3-n3c(C(=O)c4ccc(S(=O)(=O)Cc5ccc(OC)cc5)cc4O)cc(Cl)c3Cl)c(O)c2)cc1 [Compound 1-14]
fold loss of potency against Mcl-1/Bim (Mcl-1/Bim): 25 fold | IC50 (Mcl-1/Bim; [4]): 17400 ± 3100 nM

Continued, values first:

fold enhancement of potency against Bcl-xL/Bim (Bcl-xL/Bim; 1-9 vs 1-15): over 83 fold | IC50 (Bcl-xL/Bim; [2]): 1200 ± 200 nM | fold improvement of potency against Mcl-1/Bim (Mcl-1/Bim; 1-9 vs 1-15): 3.4 fold | IC50 (Mcl-1/Bim; [1]): 1800 ± 300 nM
Structure (SMILES): CCOC(=O)CSc1ccc(C(=O)c2[nH]c(Cl)c(Cl)c2-n2c(C(=O)c3ccc(SCC(=O)OCC)cc3O)cc(Cl)c2Cl)c(O)c1 [Compound 1-9]

IC50 (Bcl-xL/Bim; [3]): > 50000 nM | IC50 (Bcl-xL/Bim; [2]): > 50000 nM | activity against Mcl-1/Bim in words (Mcl-1/Bim): lost potency
Structure (SMILES): O=C(c1ccc(O)cc1O)c1[nH]c(Cl)c(Cl)c1-n1c(C(=O)c2ccc(O)cc2O)cc(Cl)c1Cl [Compound 1-7]

activity against Mcl-1/Bim in words (Mcl-1/Bim): lost potency | fold loss of potency against Mcl-1/Bim (Mcl-1/Bim): 10 fold | IC50 (Mcl-1/Bim; [1]): 63000 ± 5400 nM
Structure (SMILES): O=C(O)CS(=O)(=O)c1ccc(C(=O)c2[nH]c(Cl)c(Cl)c2-n2c(C(=O)c3ccc(S(=O)(=O)CC(=O)O)cc3O)cc(Cl)c2Cl)c(O)c1 [Compound 1-16]

selectivity for Mcl-1 over Bcl-xL (Mcl-1/Bim over Bcl-xL/Bim) (Mcl-1/Bim; ratio of ELISA IC50 values): 1.6 fold
Structure (SMILES): CC(C)(C)OC(=O)Cn1cc(-c2ccc(C(=O)c3[nH]c(Cl)c(Cl)c3-n3c(C(=O)c4ccc(-c5cn(CC(=O)OC(C)(C)C)nn5)cc4O)cc(Cl)c3Cl)c(O)c2)nn1 [Compound 1-25, Di-tert-butyl 2,2′-(4,4′-((4,4′,5,5′-tetrachloro-1′H-1,3′-bipyrrole-2,2′-dicarbonyl)bis(3-hydroxy-4,1-phenylene))bis(1H-1,2,3-triazole-4,1-diyl))diacetate]
